Legend:
CDK9/cyclin T1 = CDK9/cyclin T1 (Homo sapiens, UniProt P50750); test: Binding affinity to recombinant human full length N-terminal GST-tagged CDK9 co-expressed with full length N-terminal His-tagged CyclinT1 expressed in baculovirus expression system using CDK9 substrate incubated for 1 hr by TR-FRET assay
[1] = target: Serine/threonine-protein kinase TAO1 (Homo sapiens, UniProt Q7L7X3); test: Binding affinity to recombinant full-length N-terminal His-FLAG-GST-tagged TAOK1 (unknown origin) (1 to 314 residues) expressed in baculovirus infected Sf9 insect cells incubated for 1 hr by TR-FRET assay
Sequence of Serine/threonine-protein kinase TAO1 (Q7L7X3 whole entry, the tested form may be a part): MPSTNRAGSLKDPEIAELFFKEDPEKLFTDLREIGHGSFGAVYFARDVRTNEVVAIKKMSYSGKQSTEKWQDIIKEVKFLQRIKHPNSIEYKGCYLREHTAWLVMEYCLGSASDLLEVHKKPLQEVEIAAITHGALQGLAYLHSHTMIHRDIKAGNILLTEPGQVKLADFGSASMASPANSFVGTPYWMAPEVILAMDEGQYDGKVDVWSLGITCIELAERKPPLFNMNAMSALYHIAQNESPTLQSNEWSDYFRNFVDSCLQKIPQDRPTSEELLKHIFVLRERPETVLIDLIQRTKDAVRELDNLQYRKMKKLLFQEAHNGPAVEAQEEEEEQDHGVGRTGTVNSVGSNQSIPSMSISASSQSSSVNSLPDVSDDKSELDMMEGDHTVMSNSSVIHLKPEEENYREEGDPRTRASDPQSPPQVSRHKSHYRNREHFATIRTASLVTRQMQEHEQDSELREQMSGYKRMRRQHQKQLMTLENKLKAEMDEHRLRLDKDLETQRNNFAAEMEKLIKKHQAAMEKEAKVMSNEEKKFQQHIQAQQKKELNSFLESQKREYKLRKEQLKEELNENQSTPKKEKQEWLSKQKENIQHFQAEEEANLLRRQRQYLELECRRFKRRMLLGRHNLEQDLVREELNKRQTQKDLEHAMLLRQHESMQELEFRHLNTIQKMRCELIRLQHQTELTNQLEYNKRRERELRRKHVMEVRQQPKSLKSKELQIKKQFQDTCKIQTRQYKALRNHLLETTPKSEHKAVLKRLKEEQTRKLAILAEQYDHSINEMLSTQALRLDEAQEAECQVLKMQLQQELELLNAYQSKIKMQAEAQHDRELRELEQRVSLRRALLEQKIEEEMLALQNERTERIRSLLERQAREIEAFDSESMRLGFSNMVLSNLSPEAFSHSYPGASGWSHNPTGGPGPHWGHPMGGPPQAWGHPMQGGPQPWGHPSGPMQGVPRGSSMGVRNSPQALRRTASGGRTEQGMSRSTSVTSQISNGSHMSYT

[2] = target: Death-associated protein kinase 1 (Homo sapiens, UniProt P53355); test: Binding affinity to recombinant full-length N-terminal His-FLAG-GST-tagged DAPK1 (unknown origin) (1 to 289 residues) expressed in baculovirus infected Sf9 insect cells incubated for 1 hr by TR-FRET assay
[3] = target: Serine/threonine-protein kinase Sgk1 (Homo sapiens, UniProt O00141); test: Binding affinity to recombinant full-length N-terminal His-FLAG-GST-tagged SGK1 (unknown origin) (60 to 431 residues) expressed in baculovirus infected Sf9 insect cells incubated for 1 hr by TR-FRET assay
Sequence of Serine/threonine-protein kinase Sgk1 (O00141 whole entry, the tested form may be a part): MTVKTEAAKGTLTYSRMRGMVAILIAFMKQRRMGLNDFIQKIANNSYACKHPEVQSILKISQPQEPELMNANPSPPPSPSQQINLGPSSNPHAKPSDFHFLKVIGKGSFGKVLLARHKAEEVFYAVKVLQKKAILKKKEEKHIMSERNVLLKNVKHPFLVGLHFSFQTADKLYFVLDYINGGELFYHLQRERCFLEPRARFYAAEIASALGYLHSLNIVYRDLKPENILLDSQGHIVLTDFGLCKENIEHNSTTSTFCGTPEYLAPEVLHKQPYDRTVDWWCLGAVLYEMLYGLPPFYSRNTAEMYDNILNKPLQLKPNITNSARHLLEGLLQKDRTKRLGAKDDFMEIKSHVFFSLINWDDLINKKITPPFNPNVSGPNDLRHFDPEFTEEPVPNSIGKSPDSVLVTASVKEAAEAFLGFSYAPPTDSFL

[4] = target: Dual specificity protein kinase CLK2 (Homo sapiens, UniProt P49760); test: Binding affinity to recombinant full-length N-terminal His-FLAG-GST-tagged CLK2 (unknown origin) expressed in baculovirus infected Sf9 insect cells incubated for 1 hr by TR-FRET assay
[5] = target: Tyrosine-protein kinase Fgr (Homo sapiens, UniProt P09769); test: Binding affinity to recombinant full-length N-terminal His-FLAG-tagged FGR (unknown origin) expressed in baculovirus infected Sf9 insect cells incubated for 1 hr by TR-FRET assay
[6] = target: Receptor tyrosine-protein kinase erbB-4 (Homo sapiens, UniProt Q15303); test: Binding affinity to recombinant human full-length N-terminal GST-tagged ERBB4 expressed in baculovirus expression system using srctide as substrate incubated for 1 hr by TR-FRET assay
[7] = target: Citron Rho-interacting kinase (Homo sapiens, UniProt O14578); test: Binding affinity to recombinant full-length N-terminal His-FLAG-GST-tagged CIT (unknown origin) (1 to 449 residues) expressed in baculovirus infected Sf9 insect cells incubated for 1 hr by TR-FRET assay
Sequence of Citron Rho-interacting kinase (O14578 whole entry, the tested form may be a part): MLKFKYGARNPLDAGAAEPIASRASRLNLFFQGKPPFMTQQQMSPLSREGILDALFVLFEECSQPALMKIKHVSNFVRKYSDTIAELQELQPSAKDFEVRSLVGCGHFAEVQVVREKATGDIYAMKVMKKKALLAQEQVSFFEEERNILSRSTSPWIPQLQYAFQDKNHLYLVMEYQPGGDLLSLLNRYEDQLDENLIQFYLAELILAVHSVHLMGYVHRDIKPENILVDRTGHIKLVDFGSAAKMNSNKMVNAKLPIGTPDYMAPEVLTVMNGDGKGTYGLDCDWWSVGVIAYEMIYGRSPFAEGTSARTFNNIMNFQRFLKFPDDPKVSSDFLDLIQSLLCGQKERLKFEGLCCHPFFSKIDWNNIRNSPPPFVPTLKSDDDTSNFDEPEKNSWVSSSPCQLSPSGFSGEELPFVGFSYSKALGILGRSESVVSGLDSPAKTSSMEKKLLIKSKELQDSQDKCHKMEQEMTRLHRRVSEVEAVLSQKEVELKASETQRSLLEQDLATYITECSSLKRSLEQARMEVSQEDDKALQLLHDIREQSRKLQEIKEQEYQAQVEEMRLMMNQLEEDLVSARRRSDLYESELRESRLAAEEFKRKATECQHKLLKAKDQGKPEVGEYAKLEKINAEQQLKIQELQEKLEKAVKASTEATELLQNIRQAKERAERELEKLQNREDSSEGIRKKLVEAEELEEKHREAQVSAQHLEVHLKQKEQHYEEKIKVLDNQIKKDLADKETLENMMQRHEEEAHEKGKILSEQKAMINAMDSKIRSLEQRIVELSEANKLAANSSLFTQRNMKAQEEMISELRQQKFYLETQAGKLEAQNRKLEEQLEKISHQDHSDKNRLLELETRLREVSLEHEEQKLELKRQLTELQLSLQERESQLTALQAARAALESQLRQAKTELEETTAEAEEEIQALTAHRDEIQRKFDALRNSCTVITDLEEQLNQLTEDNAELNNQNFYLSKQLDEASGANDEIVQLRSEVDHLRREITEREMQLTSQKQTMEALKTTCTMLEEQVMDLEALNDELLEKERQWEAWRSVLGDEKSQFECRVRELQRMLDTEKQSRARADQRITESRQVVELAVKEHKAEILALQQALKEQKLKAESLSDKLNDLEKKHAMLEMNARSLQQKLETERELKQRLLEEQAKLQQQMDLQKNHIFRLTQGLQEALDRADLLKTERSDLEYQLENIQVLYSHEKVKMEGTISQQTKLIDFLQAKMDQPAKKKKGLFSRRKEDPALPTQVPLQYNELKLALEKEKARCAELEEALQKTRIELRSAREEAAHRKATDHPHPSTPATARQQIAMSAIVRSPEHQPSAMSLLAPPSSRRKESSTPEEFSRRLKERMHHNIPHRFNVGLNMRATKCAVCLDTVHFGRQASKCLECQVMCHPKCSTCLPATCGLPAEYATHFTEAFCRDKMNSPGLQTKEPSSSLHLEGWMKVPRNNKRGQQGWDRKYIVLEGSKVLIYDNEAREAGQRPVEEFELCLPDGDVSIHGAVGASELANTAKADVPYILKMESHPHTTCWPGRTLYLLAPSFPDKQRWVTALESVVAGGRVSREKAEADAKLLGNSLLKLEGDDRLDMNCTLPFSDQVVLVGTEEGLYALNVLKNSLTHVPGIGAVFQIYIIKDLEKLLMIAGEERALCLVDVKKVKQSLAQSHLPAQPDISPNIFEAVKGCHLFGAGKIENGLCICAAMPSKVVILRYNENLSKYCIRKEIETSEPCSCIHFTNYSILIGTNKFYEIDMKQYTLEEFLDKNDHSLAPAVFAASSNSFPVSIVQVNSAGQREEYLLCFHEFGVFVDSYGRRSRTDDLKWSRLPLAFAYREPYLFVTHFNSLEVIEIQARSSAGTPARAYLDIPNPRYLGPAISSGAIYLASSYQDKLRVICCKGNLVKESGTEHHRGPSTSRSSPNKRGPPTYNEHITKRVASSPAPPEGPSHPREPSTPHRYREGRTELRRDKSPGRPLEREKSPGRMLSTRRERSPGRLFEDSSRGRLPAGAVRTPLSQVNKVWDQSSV

[8] = target: Mitogen-activated protein kinase kinase kinase kinase 1 (Homo sapiens, UniProt Q92918); test: Binding affinity to recombinant N-terminal His-FLAG-GST-tagged MAP4K1 (unknown origin) (1 to 346 residues) expressed in baculovirus infected Sf9 insect cells incubated for 1 hr by TR-FRET assay
[9] = target: Mitogen-activated protein kinase kinase kinase 9 (Homo sapiens, UniProt P80192); test: Binding affinity to recombinant N-terminal His-FLAG-GST-tagged MAP3K9 (unknown origin) (110 to 422 residues) expressed in baculovirus infected Sf9 insect cells incubated for 1 hr by TR-FRET assay
[10] = target: Serine/threonine-protein kinase SIK2 (Homo sapiens, UniProt Q9H0K1); test: Binding affinity to recombinant full-length N-terminal His-FLAG-GST-tagged SIK2 (unknown origin) expressed in baculovirus infected Sf9 insect cells incubated for 1 hr by TR-FRET assay
[11] = target: NUAK family SNF1-like kinase 2 (Homo sapiens, UniProt Q9H093); test: Binding affinity to recombinant full-length N-terminal His-FLAG-tagged NUAK2 (unknown origin) expressed in baculovirus infected Sf9 insect cells incubated for 1 hr by TR-FRET assay
[12] = target: Protein kinase C gamma type (Homo sapiens, UniProt P05129); test: Binding affinity to recombinant full-length N-terminal His-FLAG-tagged PRKCG (unknown origin) expressed in baculovirus infected Sf9 insect cells incubated for 1 hr by TR-FRET assay
[13] = target: Glycogen synthase kinase-3 alpha (Homo sapiens, UniProt P49840); test: Binding affinity to recombinant full-length N-terminal His-GST-tagged GSK3A (unknown origin) expressed in baculovirus infected Sf9 insect cells incubated for 1 hr by TR-FRET assay
[14] = target: Serine/threonine-protein kinase LATS2 (Homo sapiens, UniProt Q9NRM7); test: Binding affinity to recombinant full-length N-terminal His-FLAG-GST-tagged LATS2 (unknown origin) (553 to 1088 residues) expressed in baculovirus infected Sf9 insect cells incubated for 1 hr by TR-FRET assay
[15] = target: Tyrosine-protein kinase HCK (Homo sapiens, UniProt P08631); test: Binding affinity to recombinant full-length N-terminal His-FLAG-GST-tagged HCK (unknown origin) (25 to 526 residues) expressed in baculovirus infected Sf9 insect cells incubated for 1 hr by TR-FRET assay
[16] = target: Ribosomal protein S6 kinase alpha-1 (Homo sapiens, UniProt Q15418); test: Binding affinity to recombinant full length human N-terminal GST-tagged RPS6KA1 expressed in baculovirus expression system using S6K peptide as substrate incubated for 1 hr by TR-FRET assay
[17] = target: Tyrosine-protein kinase SYK (Homo sapiens, UniProt P43405); test: Binding affinity to recombinant human full-length N-terminal GST-tagged SYK expressed in baculovirus expression system using Blk/Lyntide as substrate incubated for 1 hr by TR-FRET assay
[18] = target: Rho-associated protein kinase 2 (Homo sapiens, UniProt O75116); test: Binding affinity to recombinant full-length N-terminal His-FLAG-GST-tagged ROCK2 (unknown origin) (1 to 553 residues) expressed in baculovirus infected Sf9 insect cells incubated for 1 hr by TR-FRET assay
Sequence of Rho-associated protein kinase 2 (O75116 whole entry, the tested form may be a part): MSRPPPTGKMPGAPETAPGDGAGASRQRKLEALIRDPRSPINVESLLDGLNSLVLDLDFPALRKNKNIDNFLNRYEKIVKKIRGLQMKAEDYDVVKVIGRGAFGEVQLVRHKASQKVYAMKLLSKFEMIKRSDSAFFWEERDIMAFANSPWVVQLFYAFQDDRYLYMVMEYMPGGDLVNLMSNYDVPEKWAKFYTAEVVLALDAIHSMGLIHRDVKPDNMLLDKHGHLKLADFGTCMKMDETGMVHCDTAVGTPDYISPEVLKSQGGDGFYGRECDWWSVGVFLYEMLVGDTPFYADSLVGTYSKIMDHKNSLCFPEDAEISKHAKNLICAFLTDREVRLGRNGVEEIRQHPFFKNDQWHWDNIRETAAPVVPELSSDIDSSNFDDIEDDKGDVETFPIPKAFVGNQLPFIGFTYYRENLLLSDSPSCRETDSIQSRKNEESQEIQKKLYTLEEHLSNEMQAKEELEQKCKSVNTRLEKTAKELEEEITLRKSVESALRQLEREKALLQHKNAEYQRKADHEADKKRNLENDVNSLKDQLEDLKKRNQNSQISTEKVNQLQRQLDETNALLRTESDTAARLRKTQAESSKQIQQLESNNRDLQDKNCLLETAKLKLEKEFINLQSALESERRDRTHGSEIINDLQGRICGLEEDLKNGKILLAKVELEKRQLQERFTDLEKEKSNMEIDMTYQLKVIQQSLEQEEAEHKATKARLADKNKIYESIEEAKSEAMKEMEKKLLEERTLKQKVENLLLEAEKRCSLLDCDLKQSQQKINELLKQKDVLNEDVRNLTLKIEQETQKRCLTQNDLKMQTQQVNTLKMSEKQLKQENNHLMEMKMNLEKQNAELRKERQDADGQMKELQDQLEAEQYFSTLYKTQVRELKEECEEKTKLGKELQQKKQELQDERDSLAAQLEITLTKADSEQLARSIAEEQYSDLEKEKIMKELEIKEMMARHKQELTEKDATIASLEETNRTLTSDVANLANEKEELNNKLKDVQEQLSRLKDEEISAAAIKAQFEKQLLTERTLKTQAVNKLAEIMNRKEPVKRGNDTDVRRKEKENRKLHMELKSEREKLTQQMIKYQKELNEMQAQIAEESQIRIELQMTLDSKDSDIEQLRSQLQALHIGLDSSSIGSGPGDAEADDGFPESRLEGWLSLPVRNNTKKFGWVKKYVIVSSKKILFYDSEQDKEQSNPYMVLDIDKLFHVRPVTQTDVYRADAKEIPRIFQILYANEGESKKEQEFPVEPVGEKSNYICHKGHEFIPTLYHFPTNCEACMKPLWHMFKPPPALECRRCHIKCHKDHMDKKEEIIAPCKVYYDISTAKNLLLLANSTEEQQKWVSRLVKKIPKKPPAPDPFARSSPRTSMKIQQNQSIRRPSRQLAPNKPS

[19] = target: Protein kinase C beta type (Homo sapiens, UniProt P05771); test: Binding affinity to recombinant full-length N-terminal His-FLAG-tagged PRKCB (unknown origin) expressed in baculovirus infected Sf9 insect cells incubated for 1 hr by TR-FRET assay
[20] = target: Homeodomain-interacting protein kinase 3 (Homo sapiens, UniProt Q9H422); test: Binding affinity to recombinant N-terminal His-FLAG-GST-tagged HIPK3 (unknown origin) (161 to 562 residues) expressed in baculovirus infected Sf9 insect cells incubated for 1 hr by TR-FRET assay
[21] = target: Dual specificity tyrosine-phosphorylation-regulated kinase 1B (Homo sapiens, UniProt Q9Y463); test: Binding affinity to recombinant full-length N-terminal His-FLAG-tagged DYRK1B (unknown origin) expressed in baculovirus infected Sf9 insect cells incubated for 1 hr by TR-FRET assay
CDK7/Cyclin H/MNAT1 = CDK7/Cyclin H/MNAT1 (Homo sapiens, UniProt P50613); test: Binding affinity to recombinant human full length N-terminal GST-tagged and N-terminal GST-tagged CDK7/cyclinH/MAT1 expressed in baculovirus expression system using CTD3 peptide as substrate incubated for 1 hr by TR-FRET assay
[22] = target: Tyrosine-protein kinase FRK (Homo sapiens, UniProt P42685); test: Binding affinity to recombinant full-length N-terminal His-FLAG-GST-tagged FRK (unknown origin) (223 to 505 residues) expressed in baculovirus infected Sf9 insect cells incubated for 1 hr […] by TR-FRET assay

For CO[C@@H]1[C@H](N(C)CCOCCOCCOCCNC(=O)CCC2=[N+]3C(=Cc4c(C)cc(C)n4[B-]3(F)F)C=C2)C[C@H]2O[C@]1(C)n1c3ccccc3c3c4c(c5c6ccccc6n2c5c31)C(=O)NC4, the Kd (CDK9/cyclin T1) was 116 nM, the Kd [1] was 15 nM and the Kd [2] was 59 nM. The Kd [3] was 566 nM, the Kd [4] was 396 nM and the Kd [5] was 119 nM. The Kd [6] was 798 nM, the Kd [7] was 710 nM and the Kd [8] was 24 nM. For the same compound, the Kd [9] was 3 nM, the Kd [10] was 3 nM and the Kd [11] was 11 nM. For the same compound, the Kd [12] was 46 nM, the Kd [13] was 213 nM and the Kd [14] was 223 nM. The Kd [15] was 280 nM, the Kd [16] was 36 nM and the Kd [17] was 41 nM. The Kd [18] was 16 nM, the Kd [19] was 17 nM and the Kd [20] was 1030 nM. The Kd [21] was 40 nM, the Kd (CDK7/Cyclin H/MNAT1) was 819 nM and the Kd [22] was 372 nM.

Compound CO[C@@H]1[C@H](NCCOCCOCCOCCNC(=O)CCC2=[N+]3C(=Cc4c(C)cc(C)n4[B-]3(F)F)C=C2)C[C@H]2O[C@]1(C)n1c3ccccc3c3c4c(c5c6ccccc6n2c5c31)C(=O)NC4 has a Kd (CDK9/cyclin T1) of 162 nM, a Kd [1] of 25 nM and a Kd [2] of 69 nM. It also gave a Kd [3] of 331 nM, a Kd [4] of 318 nM and a Kd [5] of 101 nM. It also gave a Kd [6] of 496 nM, a Kd [7] of 747 nM and a Kd [8] of 17 nM. For the same compound, the Kd [9] was 2 nM, the Kd [10] was 4 nM and the Kd [11] was 10 nM. It also gave a Kd [12] of 72 nM, a Kd [13] of 329 nM and a Kd [14] of 135 nM. For the same compound, the Kd [15] was 263 nM, the Kd [16] was 16 nM and the Kd [17] was 26 nM. It also gave a Kd [18] of 23 nM, a Kd [19] of 65 nM and a Kd [20] of 798 nM. For the same compound, the Kd [21] was 107 nM, the Kd (CDK7/Cyclin H/MNAT1) was 894 nM and the Kd [22] was 332 nM.

— ChEMBL document CHEMBL4321812, “Structure-based rational design of staurosporine-based fluorescent probe with broad-ranging kinase affinity for kinase panel application” (Bioorg Med Chem Lett, 2019)
